Reference: patent US20240018132A1, “5-HYDROXY-1,4-NAPHTHALENEDIONE FOR USE IN THE TREATMENT OF CANCER” (GODAVARI BIOREFINERIES LIMITED, priority 2020, published 2024)

Experiments:
[1] = test system: MDAMB231; assay: In vitro antiproliferative assay (MTT assay), breast cancer cell line; assay type: cell-based; conditions: Homo sapiens, MDA-MB-231, 48 h, MTT assay, breast cancer MDAMB231, 48 hrs drug incubation
Procedure: (§1) MTT assay is a simple and sensitive assay where, metabolic reducing activity of the cells is measured. The increase of this activity in time is taken as a parameter of cell growth. If treatment with a drug impairs this increase, the action is a consequence of growth inhibition, cell killing or both. […] All cell lines were cultured in a 37° C. incubator with a 5% CO2 environment. Compounds were dissolved in DMSO with a concentration of 0.1M (stock solution). Cells were seeded into 96-well plates at suitable plating efficiency.
(§2) Following plating efficiencies were standardized for MTT assay:
(§3) In the MTT procedure, the cells were plated in 96 well plates as per predetermined plating efficiency (Table1). The plates were then incubated for 24 hrs in 5% CO2 atmosphere at 37° C. Appropriate concentrations of the drugs were then added to the plate and further incubation was carried out for 48 hrs (in 5% CO2 atmosphere at 37° C.). The assay plate was then centrifuged twice at 3000 rpm for 3 mins and supernatant was then discarded. 100 ul of MTT solution (0.5 mg/ml) was then added to each well of the plate and it was further incubated for 4 hrs (in 5% CO2 atmosphere at 37° C.) Following 4 hr incubation, the plate was then centrifuged twice, and supernatant was aspirated off very carefully. 200 ul of DMSO was then added to each well to solubilize. MTT crystals and mixed well by shaking the plate. XY graph of log percent viability was then plotted against log drug concentration.

[2] = test system: PC3; assay: In vitro antiproliferative assay (MTT assay), prostate cancer cell line; assay type: cell-based; conditions: Homo sapiens, PC-3, 48 h, MTT assay, prostate cancer PC3, 48 hrs drug incubation
Procedure: as §1, §2, §3

[3] = test system: MDAMB231; assay: Soft agar colony-formation assay, breast cancer; assay type: cell-based; conditions: for anticancer activity in comparison with cisplatin, soft agar, breast cancer cell line: FIG. 51, MDAMB231; for IC50: Homo sapiens, MDA-MB-231, 168 h, Soft Agar Assay, 1 week, Alamar Blue
Procedure: (§4) The Soft Agar Colony-formation Assay is an anchorage-independent growth assay in soft agar, which is one of the most stringent assays for detecting malignant transformation of cells. For this assay, malignant cells are cultured with appropriate controls in soft agar medium for 1-2 weeks. Following this incubation period, formed colonies can either be analyzed morphologically using cell stain and quantifying the number of colonies formed.
(§5) Briefly, for Soft Agar Assay a mixture of 50 ul of 2× medium (taken appropriately as per cell line) and 50 ul of 1.2% Bacto Agar were plated on to each well of 96 well micro titer assay plate. 10 ul of cells (of specific plating efficiency pre standardized for respective cell line) were mixed with 20 ul of 2× medium and 30 ul of 0.8% of Bacto Agar and 1.6 ul of drug (of appropriate concentration) in a vial and transferred to the solidified pre layers of the assay plates. The cells were then allowed to grow and form colonies at 37° C. and 5% CO2 for 1 week. An intermittent feeding with 50 ul of appropriate 2× medium was performed after 3 days of experimental set up. 16 ul of Alamar Blue (1.5 mg/ml) was then added to all the wells to quantify the developed colonies. The plates were incubated for 24 hrs at 37° C. Absorbance was then measured at 630 nm. XY graph of log Percent viability was then plotted against log drug concentration.
(§6) Following plating efficiencies were standardized for Soft Agar Assay: […]

[4] = test system: PC3; assay: Soft agar colony-formation assay, prostate cancer; assay type: cell-based; conditions: for anticancer activity in comparison with cisplatin, soft agar, prostate cancer cell line: FIG. 52, PC3; for IC50: Homo sapiens, PC-3, 168 h, Soft Agar Assay, 1 week, Alamar Blue
Procedure: as §4, §5, §6

[5] = test system: Human lymphocytes; assay: Lymphocyte assay (MTT on normal cells); assay type: cell-based; conditions: human peripheral blood lymphocytes, MTT procedure; for IC50: Lymphocyte
Procedure: Human lymphocytes were isolated from the peripheral blood. A pure population of lymphocytes was obtained based on differential centrifugation, in which diluted defibrinated blood was layered on a solution of sodium diatrizoate and polysucrose (HiSep LSM 1077) and centrifuged at low speeds for 30 mins.
Procedure: The separation of lymphocytes from fresh defibrinated blood was performed by the procedure described below: • 1. Diluted defibrinated fresh blood was overlaid gradually on (HiSeP LSM1077) and centrifuged at low speed for 30 mins. • 2. The lymphocyte layer (the buffy coat) was carefully removed in a new collection tube. • 3. The buffy coat was given another wash, by the diluent buffer Dulbecco's phosphate buffered saline (D.P.B.S) • 4. The supernatant was discarded and the pellet was resuspended in D.P.B.S. • 5. The viability of cells was checked by Haemocytometer. • 6. Cells with purity and viability of more than 95% were taken for the experiment. • 7. Purified lymphocytes were diluted at a concentration of 0.7 million/ml with sterile D.P.B.S and MTT procedure was performed exactly as described earlier.

[6] = test system: MDAMB231; assay: In vitro sphere-forming assay (cancer stem cells), Mammosphere media; conditions: for viability at 0.0025 µM / viability at 0.025 µM / viability at 0.25 µM / viability at 2.5 µM / viability at 25 µM: Homo sapiens, MDA-MB-231, read-out: % Viability of spheres (MDAMB231); for 3D sphere count of MDAMB231: Mammosphere media, 2000 cells/well, n = 6 ± S.D
Procedure: (§7) In Vitro Sphere-forming Assay: Sphere assay measures the ability of cancer stem cells (CSCs) to form spheres in specially designed serum-free medium.
Mammosphere Media Preparation (For 100 mL): 1 g methyl cellulose autoclaved with magnetic stirrer, 100 ml plain media (MEBM) was added and dissolved under magnetic stirring. After complete dissolution FGF-80 μL, EGF-40 μL, Penstrep-1 mL, Heparin-400 μL was added.
(§8) Procedure—The cells were trypsinised and made into single-cell suspension by passing through cell strainers (100 μl and 40 μl, respectively), The cells were diluted at a concentration of 2000 cells/100 μL and suspended in either Mammosphere (for breast cell lines) or Prostosphere (for prostate cell lines). 100 μL of this suspension was added into each well of 96-well suspension plates and incubated at 37° C., 5% CO2 for 24 hrs. Appropriate concentrations of the drugs (2 μL) were added into respective wells with 100 μL of stem cell culture medium. Plates were incubated at 37° C., 50 CO2 for 72 hrs. After incubation, 2.5 μL of the respective drug concentration and 50 μL of stem cell culture medium were added into each well and the plates were further incubated at 37° C., 50% CO2 for 72 hrs. 3 μL of the respective drug concentration was added with 50 μL of stem cell culture medium again after incubation and plates were reincubated for 72 hrs at 37° C., 50 CO2. Number of primary spheres formed for each concentration were counted. The spheres were converted to 0 viability of spheres compared to untreated (Growth Control with DMSO, GCD).

[7] = test system: PC3; assay: In vitro sphere-forming assay (cancer stem cells), Prostosphere media; conditions: for viability at 0.0025 µM / viability at 0.025 µM / viability at 0.25 µM / viability at 2.5 µM / viability at 25 µM: Homo sapiens, PC-3, read-out: % Viability of spheres (PC3); for 3D sphere count of PC3: Prostosphere media, 2000 cells/well, n = 6 ± S.D
Procedure: as §7
Prostosphere Media Preparation (For 100 mL):1 g methyl cellulose autoclaved with magnetic stirrer, 100 mL plain media (Prostate Epithelial Basal Medium) was added and dissolved, under magnetic stirring. After complete dissolution, Insulin-40 μL, B27-2 mL, EGF-80 μL, Penstrep-1 ml was added.
as §8

IC50 [1] | IC50 [2] | SMILES | viability at 0.0025 µM [6] | viability at 0.025 µM [6] | viability at 0.25 µM [6] | viability at 2.5 µM [6] | viability at 25 µM [6] | 3D sphere count of MDAMB231 ([6]; drug 0.0025 uM) | 3D sphere count of MDAMB231 ([6]; drug 0.025 uM) | 3D sphere count of MDAMB231 ([6]; drug 0.25 uM) | 3D sphere count of MDAMB231 ([6]; drug 2.5 uM) | 3D sphere count of MDAMB231 ([6]; drug 25 uM) | viability at 0.0025 µM [7] | viability at 0.025 µM [7] | viability at 0.25 µM [7] | viability at 2.5 µM [7] | viability at 25 µM [7] | 3D sphere count of PC3 ([7]; drug 0.0025 uM) | 3D sphere count of PC3 ([7]; drug 0.025 uM) | 3D sphere count of PC3 ([7]; drug 0.25 uM) | further results
3.06 µM | 2.73 µM | COc1ccc(NC2=CC(=O)c3c(OCCCCN4CCOCC4)cccc3C2=O)cc1OC [Formula 41] | 86% | 70% | 52% | 34% | 19% | 66(±4) | 54(±4) | 40(±3) | 26(±3) | 15(±3) | 85% | 72% | 54% | 46% | 27% | 74(±4) | 63(±3) | 47(±5) | anticancer activity in comparison with cisplatin, soft agar, breast cancer cell line [3]: higher anticancer activity in comparison with cisplatin; IC50 [3]: 1.63 µM; anticancer activity in comparison with cisplatin, soft agar, prostate cancer cell line [4]: higher anticancer activity in comparison with cisplatin; IC50 [4]: 2.67 µM; Activity on Lymphocytes (IC50) [5]: No activity; 3D sphere count of PC3 ([7]; drug 2.5 uM): 40(±4); 3D sphere count of PC3 ([7]; drug 25 uM): 24(±4)
3.02 µM | 2.23 µM | O=C(O)CCCOc1cccc2c1C(=O)C=C(Nc1ccc3c(c1)OCO3)C2=O [Formula 70] | 86% | 74% | 62% | 41% | 24% | 71(±3) | 61(±3) | 51(±3) | 34(±3) | 20(±2) | 95% | 67% | 50% | 41% | 31% | 78(±2) | 55(±2) | 41(±3) | IC50 [5]: 5.41 µM; 3D sphere count of PC3 ([7]; drug 2.5 uM): 34(±4); 3D sphere count of PC3 ([7]; drug 25 uM): 25(±3)
1.35 µM | 3.55 µM | O=C1C(Nc2ccc3c(c2)OCO3)=CC(=O)c2c(OCC(=O)N3CCOCC3)cccc21 [Formula 71] | 79% | 64% | 53% | 34% | 13% | 65(±5) | 53(±4) | 44(±4) | 28(±3) | 11(±2) | 95% | 65% | 52% | 37% | 20% | 65(±5) | 53(±4) | 44(±4) | anticancer activity in comparison with cisplatin, soft agar, breast cancer cell line [3]: higher anticancer activity in comparison with cisplatin; IC50 [3]: 1.79 µM; anticancer activity in comparison with cisplatin, soft agar, prostate cancer cell line [4]: higher anticancer activity in comparison with cisplatin; IC50 [4]: 3.31 µM; IC50 [5]: 25.2 µM; 3D sphere count of PC3 ([7]; drug 2.5 uM): 28(±3); 3D sphere count of PC3 ([7]; drug 25 uM): 11(±2)

Second part, the compound before the results:

SMILES | IC50 [1] | IC50 [2] | viability at 0.0025 µM [6] | viability at 0.025 µM [6] | viability at 0.25 µM [6] | viability at 2.5 µM [6] | viability at 25 µM [6] | 3D sphere count of MDAMB231 ([6]; drug 0.0025 uM) | 3D sphere count of MDAMB231 ([6]; drug 0.025 uM) | 3D sphere count of MDAMB231 ([6]; drug 0.25 uM) | 3D sphere count of MDAMB231 ([6]; drug 2.5 uM) | 3D sphere count of MDAMB231 ([6]; drug 25 uM) | viability at 0.0025 µM [7] | viability at 0.025 µM [7] | viability at 0.25 µM [7] | viability at 2.5 µM [7] | viability at 25 µM [7] | 3D sphere count of PC3 ([7]; drug 0.0025 uM) | 3D sphere count of PC3 ([7]; drug 0.025 uM) | 3D sphere count of PC3 ([7]; drug 0.25 uM) | further results
O=C1C=C(OCCCCN2CCOCC2)C(=O)c2ccccc21 [Formula 67] | 3.09 µM | 4.11 µM | 80% | 69% | 56% | 48% | 37% | 67(±2) | 58(±3) | 47(±5) | 40(±5) | 31(±2) | 70% | 64% | 51% | 44% | 36% | 61(±5) | 56(±3) | 45(±3) | anticancer activity in comparison with cisplatin, soft agar, breast cancer cell line [3]: higher anticancer activity in comparison with cisplatin; IC50 [3]: 3.17 µM; anticancer activity in comparison with cisplatin, soft agar, prostate cancer cell line [4]: higher anticancer activity in comparison with cisplatin; IC50 [4]: 2.21 µM; IC50 [5]: 5.15 µM; 3D sphere count of PC3 ([7]; drug 2.5 uM): 39(±2); 3D sphere count of PC3 ([7]; drug 25 uM): 32(±3)
O=C1C=C(OCCCCCCN2CCOCC2)C(=O)c2ccccc21 [Formula 68] | 3.18 µM | 4.73 µM | 62% | 53% | 47% | 39% | 32% | 54(±2) | 47(±2) | 39(±3) | 33(±2) | 27(±2) | 62% | 55% | 41% | 31% | 24% | 54(±4) | 48(±3) | 36(±3) | anticancer activity in comparison with cisplatin, soft agar, breast cancer cell line [3]: higher anticancer activity in comparison with cisplatin; IC50 [3]: 2.37 µM; anticancer activity in comparison with cisplatin, soft agar, prostate cancer cell line [4]: higher anticancer activity in comparison with cisplatin; IC50 [4]: 2.53 µM; IC50 [5]: 5.58 µM; 3D sphere count of PC3 ([7]; drug 2.5 uM): 27(±2); 3D sphere count of PC3 ([7]; drug 25 uM): 21(±2)
O=C1C(c2ccc3c(c2)OCO3)=CC(=O)c2c(OCCCC(=O)N3CCOCC3)cccc21 [Formula 69] | 2.75 µM | 2.12 µM | 86% | 70% | 57% | 35% | 19% | 71(±3) | 58(±3) | 47(±3) | 29(±3) | 16(±2) | 93% | 65% | 49% | 35% | 21% | 76(±3) | 53(±3) | 40(±2) | IC50 [5]: 12.1 µM; 3D sphere count of PC3 ([7]; drug 2.5 uM): 29(±2); 3D sphere count of PC3 ([7]; drug 25 uM): 17(±3)
